# Reference: patent US20250375456A1, “AGENT FOR PREVENTING OR TREATING RESPIRATORY DISEASE” (Nippon Chemiphar Co., Ltd., priority 2021, published 2025)
# Experiments:
# Type in all cases: in vivo, guinea pig
# [1] = Measurement of weights in cigarette smoke-exposed model; settings: Day 1 to Day 26; Compound A 3, 10, 30 mg/kg, gefapixant 10 mg/kg, oral once a day
# Excerpt: (§1) Male Hartley guinea pigs (manufactured by Japan SLC, Inc., Slc: Hartley, SPF) were used in the test. The guinea pigs were purchased at 5 weeks old. The weights at the time of the purchase were about 300 to 350 g. After arrival, the guinea pigs were provided with an acclimation period of 9 days, including the day of receipt. During the above period, the clinical symptoms of the animals were observed once a day. In addition, on the last day of the acclimation period, the animals were weighed and the health status was measured. It was confirmed that there were no abnormal clinical signs or […] in any of the animals. Body weights on the last day of the acclimation (that is, at the beginning of exposure to cigarette smoke) were about 390 to 450 g.
# Experimental animals were prepared with reference to Non Patent Literature 2. Specifically, guinea pigs exposed to cigarette smoke using a smoking exposure system (INH06-CIG01A, INH06-CIG02, M.I.P.S. Inc.) were used in the experiment. […]
# The placebo and each drug were administered by forced oral administration into the stomach using a disposable syringe equipped with a gastric catheter. […] The actual amount of each drug administered to each guinea pig was calculated based on the most recent weight.
# The weights were measured with an electronic balance (MSA4202S, Sartorius Japan K.K.) before the research operation on Days 1, 8, 15, 22, and 26.
# [2] = system: cigarette smoke-exposed guinea pigs; assay: Number of cells in bronchoalveolar lavage fluid (BALF) in cigarette smoke-exposed model
# Excerpt: as §1
# (§2) Experimental animals were prepared with reference to Non Patent Literature 2. Specifically, guinea pigs exposed to cigarette smoke using a smoking exposure system (INH06-CIG01A, INH06-CIG02, M.I.P.S. Inc.) were used in the experiment. Each guinea pig was placed in an exposure holder (one per cage), and the holder was secured in the exposure chamber. The animals were exposed to the smoke of 30 cigarette per day, 5 days a week, for 4 weeks, the smoke being generated by a mainstream smoke generator. In the fourth week, the exposure was for 4 days (smoking period was from […]). As for the cigarettes, Peace (no filter, tar: 28 mg, nicotine: 2.3 mg, Japan Tobacco Inc., Peace is a registered trademark of Japan Tobacco Inc.) was used.
# (§3) The placebo and each drug were administered by forced oral administration into the stomach using a disposable syringe equipped with a gastric catheter. As for the administration frequency, repetitive administration was performed once a day for 25 days from Day 1 to Day 25. The administration time was 1 hour (±5 minutes) before the cigarette smoke-exposure. The dose was 5 mL/kg. The actual amount of each drug administered to each guinea pig was calculated based on the most recent weight.
# The measurement was performed after the day after the last cigarette smoke exposure (Day 26).
# After sacrificing the guinea pigs by bleeding under anesthesia, bronchoalveolar lavage fluid (BALF) was collected according to the following operating procedure.
# (1) After ligating the left main bronchus with a thread, a cannula was inserted into the trachea and fixed.
# (2) 5 mL of saline was injected into the right lung through the cannula, and the lavage fluid was collected by gentle suctioning. BALF was collected by repeating this procedure twice (a total of 10 mL).
# The pellet was suspended in 1 mL of saline, and the number of WBCs were counted using an automated hematology analyzer with a BALF analysis area (XT-2000iV, Sysmex Corporation). The counting was performed by adjusting the smear preparation. The smear preparation was performed by centrifuging the cell suspension again and suspending the obtained pellet in 75% FBS (fetal bovine serum and saline). After drying, the smear preparation was Wright-Giemsa stained.
# The percentages of neutrophils, macrophages, eosinophil, and lymphocytes with respect to total WBCs were obtained, and the numbers of the cells per 1 μL were calculated.
# [3] = system: cigarette smoke-exposed guinea pigs; assay: Measurement of citric acid-induced cough reflex in cigarette smoke-exposed model; settings: for mean number of cough reflexes: Day 20 or 21, 2 hours after administration, 0.1 mol/L citric acid, 15 minutes
# Excerpt: as §1, §2, §3
# Measurements were performed 1 day or 2 days after the last cigarette smoke exposure during Week 3 (Day 20 or Day 21).
# The measurements were performed 2 hours after the administration of the placebo or various drugs.
# The guinea pigs were placed in the inhalation chamber of the respiratory function measurement system (Pulmos-I, M.I.P.S. Co.). Cough reflex was induced by inhaling citric acid (lot no. M8K7523, manufactured by NACALAI TESQUE, INC.) for 3 minutes from the front side of the chamber using an ultrasonic nebulizer. […] The presence or absence of a cough reflex was determined from the sound during the cough reflex, the movement of the animal, and the respiratory function. Before the measurement on the day of the administration, the animals were placed in the chamber for 15 minutes or longer to acclimatize to the experimental environment. Note that the respiratory function (respiratory rate (RR), tidal volume (TV), peak expiratory flow (PEF), and minute volume (MV)) was measured immediately before the citric acid inhalation. The respiratory function was measured by the body side sensor of the respiratory function measurement system.
# [4] = system: cigarette smoke-exposed guinea pigs; assay: Measurement of respiratory function (double flow plethysmography) in cigarette smoke-exposed model
# Excerpt: as §1, §2
# Unless otherwise specified, various evaluations were performed on the day after the last cigarette smoke-exposure in the second week (Day 13) and the day after the last cigarette smoke-exposure (Day 26).
# The solvent of Compound A was used as the placebo of the control group.
# as §3
# Respiratory function in conscious guinea pigs was measured by double flow plethysmography using a respiratory function measurement system (Pulmos-I, M.I.P.S Inc.). The measurement parameters were specific airway resistance (sRaw), tidal volume (TV), respiratory rate (RR), minute volume (MV), and peak expiratory flow (PEF). The average value of the measurement values obtained with 100 breaths was considered as the measurement value for each measurement day.
# [5] = Day 13, 10 mg/kg oral once a day
# [6] = Day 26, 10 mg/kg oral once a day
# [7] = Day 26, high-dose group 30 mg/kg oral
# [8] = Day 26, low-dose group 3 mg/kg oral
# [9] = Day 26, medium-dose group 10 mg/kg oral
smiles,measurement,setting,value
"COc1cc(C(C)C)c(Oc2cnc(N)nc2N)cc1S(N)(=O)=O [Gefapixant, reference compound]",weight changes compared to the control (placebo) group,[1],comparable
same,effect on the changes in the number of cells in BALF,[2]; 10 mg/kg oral,did not have an effect
same,mean number of macrophages in BALF,"[2]; Day 26, 10 mg/kg oral",24.4 ×10^2 cells/μL
same,mean number of total WBCs in BALF,"[2]; Day 26, 10 mg/kg oral",40.0 ×10^2 cells/μL
same,number of macrophages compared to the control (placebo) group,"[2]; Day 26, 10 mg/kg oral",no significant different
same,total number of WBCs compared to the control (placebo) group,"[2]; Day 26, 10 mg/kg oral",no significant different
same,number of cough reflexes compared to the control (placebo) group,[3]; 10 mg/kg oral,no significant difference
same,mean number of cough reflexes,[3]; 10 mg/kg oral,4.5
same,effect on the respiratory function,[4]; 10 mg/kg oral,did not have a significant effect
same,specific airway resistance (sRaw),[4]; [5],1.675 cmH2O·sec
same,sRaw compared to the control (placebo) group,"[4]; Day 13 and Day 26, 10 mg/kg oral",no significant difference
same,specific airway resistance (sRaw),[4]; [6],2.066 cmH2O·sec
"O=C1CC(=O)N(c2ccc(NC(=O)c3ccccc3I)cc2)c2ccc3ccccc3c2N1 [Compound B48, 5-[4-(2-iodobenzoylamino)phenyl]-1H-naphtho[1,2-b][1,4]diazepine-2,4(3H,5H)-dione]",weight changes compared to the control (placebo) group,[1],comparable
same,mean number of macrophages in BALF,"[2]; Day 26, 10 mg/kg oral",20.2 ×10^2 cells/μL
same,mean number of total WBCs in BALF,"[2]; Day 26, 10 mg/kg oral",30.1 ×10^2 cells/μL
same,"macrophages, dose dependence","[2]; Day 26, 3, 10, 30 mg/kg oral",smaller than that in the control (placebo) group in a dose-dependent manner
same,"neutrophils, dose dependence","[2]; Day 26, 3, 10, 30 mg/kg oral",tendency of decreasing in a dose-dependent manner
same,number of eosinophils compared to the control (placebo) group,"[2]; Day 26, 3, 10, 30 mg/kg oral",no significant difference
same,number of lymphocytes compared to the control (placebo) group,"[2]; Day 26, 3, 10, 30 mg/kg oral",no significant difference
same,"total WBCs, dose dependence","[2]; Day 26, 3, 10, 30 mg/kg oral",smaller than that in the control (placebo) group in a dose-dependent manner
same,mean number of eosinophils in BALF,[2]; [7],5.6 ×10^2 cells/μL
same,mean number of lymphocytes in BALF,[2]; [7],1.0 ×10^2 cells/μL
same,mean number of macrophages in BALF,[2]; [7],12.0 ×10^2 cells/μL
same,mean number of neutrophils in BALF,[2]; [7],2.3 ×10^2 cells/μL
same,mean number of total WBCs in BALF,[2]; [7],20.9 ×10^2 cells/μL
same,number of macrophages compared to the control (placebo) group,[2]; [7],significantly suppressed
same,total number of WBCs compared to the control (placebo) group,[2]; [7],significantly suppressed
same,mean number of eosinophils in BALF,[2]; [8],4.8 ×10^2 cells/μL
same,mean number of lymphocytes in BALF,[2]; [8],1.1 ×10^2 cells/μL
same,mean number of macrophages in BALF,[2]; [8],25.0 ×10^2 cells/μL
same,mean number of neutrophils in BALF,[2]; [8],3.1 ×10^2 cells/μL
same,mean number of total WBCs in BALF,[2]; [8],33.9 ×10^2 cells/μL
same,mean number of eosinophils in BALF,[2]; [9],6.1 ×10^2 cells/μL
same,mean number of lymphocytes in BALF,[2]; [9],1.2 ×10^2 cells/μL
same,mean number of neutrophils in BALF,[2]; [9],2.5 ×10^2 cells/μL
same,number of cough reflexes compared to the control (placebo) group,[3]; 10 mg/kg oral,no significant difference
same,mean number of cough reflexes,[3]; 10 mg/kg oral,6.9
same,number of cough reflexes compared to the control (placebo) group,[3]; high-dose group 30 mg/kg oral,tendency of suppressing the cough reflex
same,mean number of cough reflexes,[3]; high-dose group 30 mg/kg oral,3.6
same,number of cough reflexes compared to the control (placebo) group,[3]; low-dose group 3 mg/kg oral,no significant difference
same,mean number of cough reflexes,[3]; low-dose group 3 mg/kg oral,6.0
same,"minute volume (MV), dose dependence","[4]; 3, 10, 30 mg/kg oral",tendency of increasing in a dose-dependent manner
same,"peak expiratory flow (PEF), dose dependence","[4]; 3, 10, 30 mg/kg oral",tendency of increasing in a dose-dependent manner
same,"tidal volume (TV), dose dependence","[4]; 3, 10, 30 mg/kg oral",tendency of increasing in a dose-dependent manner
same,"sRaw, dose dependence","[4]; 3, 10, 30 mg/kg oral, Day 13 and Day 26",decreased in a dose-dependent manner
same,specific airway resistance (sRaw),[4]; [5],1.711 cmH2O·sec
same,specific airway resistance (sRaw),"[4]; Day 13, high-dose group 30 mg/kg oral once a day",1.556 cmH2O·sec
same,sRaw compared to the control (placebo) group,"[4]; Day 13, high-dose group 30 mg/kg oral, P<0.05",significant decrease
same,specific airway resistance (sRaw),"[4]; Day 13, low-dose group 3 mg/kg oral once a day",1.755 cmH2O·sec
same,specific airway resistance (sRaw),[4]; [6],2.017 cmH2O·sec
same,"respiratory rate (RR), dose dependence","[4]; Day 26, 3, 10, 30 mg/kg oral",tendency of decreasing in a dose-dependent manner
same,specific airway resistance (sRaw),"[4]; Day 26, high-dose group 30 mg/kg oral once a day",1.994 cmH2O·sec
same,specific airway resistance (sRaw),"[4]; Day 26, low-dose group 3 mg/kg oral once a day",2.105 cmH2O·sec
same,PEF compared to the control (placebo) group,"[4]; all Compound A groups (3, 10, 30 mg/kg)",higher
same,MV compared to the control (placebo) group,[4]; medium-dose group (10 mg/kg) and high-dose group (30 mg/kg),higher
